From patent publication US12064509B2, “Enema for rectal application” (Dr. Falk Pharma GmbH, priority 2015, dated 2024)

Columns and labels:
[1] = system: patients with active ulcerative colitis; assay: Placebo-controlled randomized double-blind multicenter parallel group comparative study (Japic CTI-132294), rectal budesonide foam; assay type: in vivo, human
Description: Dose responsiveness, efficacy and safety are investigated for patients with active ulcerative colitis when budesonide 2 mg is rectally administered once a day or twice a day for 6 weeks by a double-blind comparative study with placebo as a control (clinical trial number: Japic CTI-132294). For the trial, an aerosol with fixed dose injection type for rectal injection (rectal foaming agent) is used as a test drug, in which 25 mL (1.35 g) of white creamy foam containing 2 mg of budesonide is released by one injection. As a remission induction therapeutic agent of ulcerative colitis in active phase where the lesion is confined to the rectum and sigmoid colon, the aerosol for rectal injection is approved in Europe at a dosage and dose of budesonide 2 mg once a day (trade name: Budenofalk 2 mg/dose rectal foam, manufactured by Dr. Falk Pharma GmbH). […] The subjects are ulcerative colitis patients in active phase, and are divided into a group administered the test drug once a day (hereinafter, once a day group, 54 cases), a group administered the test drug twice a day (hereafter, twice a day group, 55 cases), and a group administered the control drug (hereinafter, placebo group, 56 cases). The test drug or control drug is rectally administered twice a day (once in the morning and once in the evening), after defecation, if possible. However, for the once a day group of test drug, a control drug is administered in the morning and a test drug is administered in the evening. The number of injections per dose is one, the administration period is 6 weeks, and the drug is administered until the evening before the evaluation. The dose of budesonide in each group is 2 mg/day for the once a day group, 4 mg/day for the twice a day group, and 0 mg/day for the placebo group. Furthermore, in order to exclude patients whose symptoms improve due to the action of rectal administration (improvement example due to placebo effect) or patients who develop complaints resulting from rectal administration, a pre-observation period in which the control drug is administered twice a day (once in the morning and once in the evening) for one week under a single-blind test is set prior to this administration. […] The point estimate of the odds ratio for the placebo group (95% confidence interval on both sides) in the logistic regression model with model as main effect model, remission rate as objective variable, and administration group and assignment factor as explanatory variables is 3.994 (1.734 to 9.711) in the once a day group, and 3.674 (1.594 to 8.930) in the twice a day group. The lower limit value of 95% confidence interval on both sides exceeds 1 in both groups. […] In addition, the difference point estimate (95% confidence interval on both sides) from the placebo group is 22.8% (4.3% to 39.3%) in the once a day group, 30.5% (12.3% 46.0%) in the twice a day group. Significant differences are observed in the once a day group and twice a day group as compared with the placebo group. The results are illustrated in Table 1 and FIG. 1. In the table and figure, “budesonide once a day administration group” illustrates the result of once a day group, and “budesonide twice a day administration group” illustrates the result of twice a day group, respectively. Patients with MMDAI endoscopic score of 0 are evaluated as mucosal healing. […] In addition, the difference point estimate (95% confidence interval on both sides) from the placebo group is 18.1% (4.8% to 31.3%) in the once a day group, 40.9% (25.2% to 54.2%) in the twice a day group. Significant differences are observed in the once a day group and twice a day group as compared with the placebo group. […]

[2] = system: patients with active ulcerative colitis; assay: as above; assay type: in vivo, human; remark: listed apart in the source
[3] = 2 mg once or twice a day, 6 weeks
[4] = budesonide 2 mg once a day, 6 weeks
[5] = budesonide 2 mg twice a day, 6 weeks
[6] = once a day group, 55 analysis target cases
[7] = twice a day group, 56 analysis target cases

## CCCC1O[C@@H]2C[C@H]3[C@@H]4CCC5=CC(=O)C=C[C@]5(C)[C@H]4[C@@H](O)C[C@]3(C)[C@]2(C(=O)CO)O1 (mixture of isomers) [Budesonide, (+)-[(RS)-16α,17α-Butylidenedioxy-11β,21-dihydroxy-1,4-pregnadiene-3,20-dione]]
[1]; [3]
  adverse events due to administration of the test drug: serum cortisol decrease and serum corticotropin decrease occurs
  serious adverse events or severe adverse events: are not occurred
[1]; 2 mg per dose, 6 weeks
  incidence of adverse events, twice a day group compared with once a day group: increased
[1]; 2 mg rectal administration once a day or twice a day for 6 weeks
  tolerability to patients of ulcerative colitis: acceptable
[1]; [4]
  mucosal healing rate (proportion of subjects with MMDAI endoscopic score of 0): 23.6%
  mucosal remission rate (proportion of subjects with MMDAI endoscopic score of 1 or less): 69.1%
[1]; budesonide 2 mg rectal foam once a day, 6 weeks
  remission rate (MMDAI: bloody stool score 0, endoscopic score 1 or less, stool frequency score 0 or decrease of 1 point or more from week 0): 50.9%
[1]; budesonide 2 mg rectal foam twice a day, 6 weeks
  remission rate (MMDAI: bloody stool score 0, endoscopic score 1 or less, stool frequency score 0 or decrease of 1 point or more from week 0): 48.2%
[1]; [5]
  mucosal healing rate (proportion of subjects with MMDAI endoscopic score of 0): 46.4%
  mucosal remission rate (proportion of subjects with MMDAI endoscopic score of 1 or less): 76.8%
[1]; once a day group, 6 weeks
  mucosal healing rate, point estimate of proportion difference from placebo group: 18.1%
  mucosal remission rate, point estimate of proportion difference from placebo group: 22.8%
  point estimate of the odds ratio versus the placebo group, mucosal healing rate (logistic regression): 5.143
  point estimate of the odds ratio versus the placebo group, remission rate (logistic regression): 3.994
[1]; twice a day group compared with once a day group
  incidence of adverse events related to glucocorticoids: increase in the incidence of adverse events related to glucocorticoids is not observed
[1]; twice a day group, 6 weeks
  mucosal healing rate, point estimate of proportion difference from placebo group: 40.9%
  mucosal remission rate, point estimate of proportion difference from placebo group: 30.5%
  point estimate of the odds ratio versus the placebo group, mucosal healing rate (logistic regression): 15.553
  point estimate of the odds ratio versus the placebo group, remission rate (logistic regression): 3.674
[2]; [6]
  Case (subjects in mucosal remission, endoscopic score 1 or less): 38
  Case (subjects with mucosal healing, endoscopic score 0): 13
[2]; [7]
  Case (subjects in mucosal remission, endoscopic score 1 or less): 43
  Case (subjects with mucosal healing, endoscopic score 0): 26
